Where “and” joins values, the source holds several entries; their conditions need not be identical. Identical values can stand only once.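 Cultured in 96-well plates, cells were exposed to test compound for 48 hours across five concentrations. Abbreviation: GI50, concentration required for 50% inhibition of growth. TGI: total growth inhibition.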
Experiments:
Experiment in all cases: NCI-60 cell line screen, 48 h
786-0 renal = system: 786-0 renal
A498 renal = system: A498 renal
HCT-116 colon = system: HCT-116 colon
NCI-H23 lung = system: NCI-H23 lung
OVCAR-5 ovarian = system: OVCAR-5 ovarian
SK-MEL-2 melanoma = system: SK-MEL-2 melanoma
SK-MEL-5 melanoma = system: SK-MEL-5 melanoma
SNB-19 CNS = system: SNB-19 CNS

Structure (SMILES) | TGI (786-0 renal) | TGI (A498 renal) | TGI (HCT-116 colon) | TGI (NCI-H23 lung) | TGI (OVCAR-5 ovarian) | TGI (SK-MEL-2 melanoma) [µM] | TGI (SK-MEL-5 melanoma) | TGI (SNB-19 CNS) | GI50 (786-0 renal) [µM] | GI50 (HCT-116 colon) [µM] | GI50 (NCI-H23 lung) [µM] | GI50 (SK-MEL-5 melanoma) [µM] | GI50 (A498 renal) [µM] | GI50 (OVCAR-5 ovarian) [µM] | GI50 (SNB-19 CNS) [µM]
Cc1cccc(CC(C)(C)C)c1NC(=O)C(=O)C(C(=O)c1ccc2ccccc2c1)C1OC(=O)c2ccccc21 (configuration not stated) | 21.7 µM | 30.9 µM | > 100 µM | 19.2 µM | 34.7 µM | 34.2 | 26.7 µM | 46.9 µM |  |  |  |  |  |  | 
Cc1[nH]c(=O)nc(N/N=C/c2ccc(O)cc2)c1C(=O)Nc1ccc(Cl)cc1 | > 100 µM | > 100 µM | > 100 µM |  |  | > 100 | > 100 µM | > 100 µM |  |  |  |  |  |  | 
COc1cc(CC(=O)c2ccc3c(c2)OCO3)cc(OC)c1OC | > 100 µM | > 100 µM | > 100 µM | > 100 µM | > 100 µM | > 100 | > 100 µM | > 100 µM |  |  |  |  |  |  | 
Cc1cccc(N2C(=O)/C(=C/c3ccc(N(CCC#N)CCC#N)cc3C)N=C2c2cc([N+](=O)[O-])ccc2Cl)c1 | > 100 µM | > 100 µM | > 100 µM | > 100 µM | > 100 µM | > 100 | > 100 µM | > 100 µM |  |  |  |  |  |  | 
CCOC(=O)NNC(=O)NC12CC3CC(CC(C3)C1)C2 | > 100 µM | > 100 µM | > 100 µM | > 100 µM | > 100 µM | > 100 | > 100 µM | > 100 µM |  |  |  |  |  |  | 
CCCCCCCCC(=O)NCCCNCCCNC(=O)CCCCCCCC | 3.52 µM | 32.1 µM | 9.54 µM | 29.9 µM | 28.5 µM | 9.05 | 14.1 µM | 35.9 µM |  |  |  |  |  |  | 
Cc1ns/c(=N\C(=S)N(C)C)n1C | > 100 µM | > 100 µM | > 100 µM | > 100 µM | > 100 µM | > 100 | > 100 µM | > 100 µM |  |  |  |  |  |  | 
O=C1c2cccc3cccc(c23)C(=O)N1CCCN1CCN(CCCN2C(=O)c3cccc4cccc(c34)C2=O)CC1 | > 100 µM | > 100 µM | > 100 µM | > 100 µM | > 100 µM | > 100 | > 100 µM | > 100 µM |  |  |  |  |  |  | 
N#CC(=C=[N-])[n+]1ccc(Cl)cc1 | 37.2 µM | 86.6 µM | 31.2 µM | 29.9 µM | 32.7 µM |  | 29.7 µM | 94.5 µM |  |  |  |  |  |  | 
COC(=O)C1CCC(=NC2c3ccccc3-c3ccccc32)N1 (configuration not stated) | > 100 µM | > 100 µM | > 100 µM | > 100 µM | > 100 µM | > 100 |  | > 100 µM |  |  |  |  |  |  | 
O=C1c2ccccc2C(=O)c2c1ccc1c3ccccc3n(Cc3ccccc3)c21 | > 100 µM |  | > 100 µM |  | > 100 µM | > 100 | > 100 µM |  |  |  |  |  |  |  | 
C/C(=N/Nc1ccc([N+](=O)[O-])cc1[N+](=O)[O-])C(CC(C(=O)Nc1ccccc1C)/C(C)=N\Nc1ccc([N+](=O)[O-])cc1[N+](=O)[O-])C(=O)Nc1ccccc1C (configuration not stated) | 41.3 µM | 34 µM | 26.4 µM | 25.5 µM | 31 µM | 28.2 | 36.8 µM | 32 µM |  |  |  |  |  |  | 
O=C1/C(=C/c2ccccc2)CN(C(=O)Oc2ccc([N+](=O)[O-])cc2)C/C1=C\c1ccccc1 | 3.55 µM |  | 1.65 µM and 1.08 µM |  |  | 29.2 | 5.38 µM |  | 1.74 | 0.303 | 9.79 | 4.12 |  |  | 
CCOC(=N)CC(=O)NC(C)c1ccccc1 (configuration not stated) | > 100 µM | > 100 µM | > 100 µM | > 100 µM | > 100 µM | > 100 | > 100 µM | > 100 µM |  |  |  |  |  |  | 
O=C(OCc1nc2ccc(Br)cc2c(=O)n1-c1ccccc1)c1ccccc1O | > 100 µM | > 100 µM | > 100 µM | > 100 µM | > 100 µM | > 100 | 68.7 µM |  |  |  |  |  |  |  | 
C/C(=N\NC(=S)N1CCC(C2CCN(C(=S)N/N=C(\C)c3ccccn3)CC2)CC1)c1ccccn1 | > 100 µM | > 100 µM | > 100 µM | > 100 µM | > 100 µM |  | > 100 µM | > 100 µM |  |  |  |  |  |  | 
O=C1CC2Sc3ccccc3N=C2N1c1ccc(Cl)cc1Cl (configuration not stated) | > 100 µM |  | > 100 µM | > 100 µM | > 100 µM | > 100 | > 100 µM | > 100 µM |  |  |  |  |  |  | 
CCCCCCCCCCCCCCCC(=O)N[C@H]1CCc2cc(OC)c(OC)c(OC)c2-c2ccc(SC)c(=O)cc21 | 8.24 µM and 12.9 µM | 3.64 µM and 5.35 µM | 3.67 µM and 3.49 µM | 1.96 µM and 3.85 µM | 41.1 µM and 36.8 µM | 4.46 | 5.73 µM and 4.4 µM | 9.27 µM and 8.35 µM | 3.31 | 1.04 | 1.25 | 1.52 | 2.27 | 19.7 | 2.46
CCN1CC2(C)CC[C@@H](OC)C34[C@@H]2[C@H](OC(C)=O)C2(OCO[C@@]25C[C@H](OC)C2C[C@]3(O)[C@@H]5[C@H]2O)[C@H]14 | > 100 µM |  | > 100 µM | > 100 µM | > 100 µM | > 100 |  | > 100 µM |  |  |  |  |  |  | 
